These results are taken from patent US5198433A, “Lactamimides as calcium antagonists” (Merrell Dow Pharmaceuticals Inc., priority 1992, dated 1993).

Experiment [1] has as its system [3H]nitrendipine binding in rat cerebral cortical and cardiac homogenates. The note with it: cited from earlier work.
The target of experiment [2] is T1, [^3 H]nitrendipine binding to rat heart membranes (calcium ion-channel protein) (Rattus norvegicus, UniProt P22002).
T1 construct: Membranes were prepared from the hearts of male Sprague-Dawley rats; from tissue; host or cells: heart membranes of male Sprague-Dawley rats
T1 sequence (P22002 whole entry, other chains not shown): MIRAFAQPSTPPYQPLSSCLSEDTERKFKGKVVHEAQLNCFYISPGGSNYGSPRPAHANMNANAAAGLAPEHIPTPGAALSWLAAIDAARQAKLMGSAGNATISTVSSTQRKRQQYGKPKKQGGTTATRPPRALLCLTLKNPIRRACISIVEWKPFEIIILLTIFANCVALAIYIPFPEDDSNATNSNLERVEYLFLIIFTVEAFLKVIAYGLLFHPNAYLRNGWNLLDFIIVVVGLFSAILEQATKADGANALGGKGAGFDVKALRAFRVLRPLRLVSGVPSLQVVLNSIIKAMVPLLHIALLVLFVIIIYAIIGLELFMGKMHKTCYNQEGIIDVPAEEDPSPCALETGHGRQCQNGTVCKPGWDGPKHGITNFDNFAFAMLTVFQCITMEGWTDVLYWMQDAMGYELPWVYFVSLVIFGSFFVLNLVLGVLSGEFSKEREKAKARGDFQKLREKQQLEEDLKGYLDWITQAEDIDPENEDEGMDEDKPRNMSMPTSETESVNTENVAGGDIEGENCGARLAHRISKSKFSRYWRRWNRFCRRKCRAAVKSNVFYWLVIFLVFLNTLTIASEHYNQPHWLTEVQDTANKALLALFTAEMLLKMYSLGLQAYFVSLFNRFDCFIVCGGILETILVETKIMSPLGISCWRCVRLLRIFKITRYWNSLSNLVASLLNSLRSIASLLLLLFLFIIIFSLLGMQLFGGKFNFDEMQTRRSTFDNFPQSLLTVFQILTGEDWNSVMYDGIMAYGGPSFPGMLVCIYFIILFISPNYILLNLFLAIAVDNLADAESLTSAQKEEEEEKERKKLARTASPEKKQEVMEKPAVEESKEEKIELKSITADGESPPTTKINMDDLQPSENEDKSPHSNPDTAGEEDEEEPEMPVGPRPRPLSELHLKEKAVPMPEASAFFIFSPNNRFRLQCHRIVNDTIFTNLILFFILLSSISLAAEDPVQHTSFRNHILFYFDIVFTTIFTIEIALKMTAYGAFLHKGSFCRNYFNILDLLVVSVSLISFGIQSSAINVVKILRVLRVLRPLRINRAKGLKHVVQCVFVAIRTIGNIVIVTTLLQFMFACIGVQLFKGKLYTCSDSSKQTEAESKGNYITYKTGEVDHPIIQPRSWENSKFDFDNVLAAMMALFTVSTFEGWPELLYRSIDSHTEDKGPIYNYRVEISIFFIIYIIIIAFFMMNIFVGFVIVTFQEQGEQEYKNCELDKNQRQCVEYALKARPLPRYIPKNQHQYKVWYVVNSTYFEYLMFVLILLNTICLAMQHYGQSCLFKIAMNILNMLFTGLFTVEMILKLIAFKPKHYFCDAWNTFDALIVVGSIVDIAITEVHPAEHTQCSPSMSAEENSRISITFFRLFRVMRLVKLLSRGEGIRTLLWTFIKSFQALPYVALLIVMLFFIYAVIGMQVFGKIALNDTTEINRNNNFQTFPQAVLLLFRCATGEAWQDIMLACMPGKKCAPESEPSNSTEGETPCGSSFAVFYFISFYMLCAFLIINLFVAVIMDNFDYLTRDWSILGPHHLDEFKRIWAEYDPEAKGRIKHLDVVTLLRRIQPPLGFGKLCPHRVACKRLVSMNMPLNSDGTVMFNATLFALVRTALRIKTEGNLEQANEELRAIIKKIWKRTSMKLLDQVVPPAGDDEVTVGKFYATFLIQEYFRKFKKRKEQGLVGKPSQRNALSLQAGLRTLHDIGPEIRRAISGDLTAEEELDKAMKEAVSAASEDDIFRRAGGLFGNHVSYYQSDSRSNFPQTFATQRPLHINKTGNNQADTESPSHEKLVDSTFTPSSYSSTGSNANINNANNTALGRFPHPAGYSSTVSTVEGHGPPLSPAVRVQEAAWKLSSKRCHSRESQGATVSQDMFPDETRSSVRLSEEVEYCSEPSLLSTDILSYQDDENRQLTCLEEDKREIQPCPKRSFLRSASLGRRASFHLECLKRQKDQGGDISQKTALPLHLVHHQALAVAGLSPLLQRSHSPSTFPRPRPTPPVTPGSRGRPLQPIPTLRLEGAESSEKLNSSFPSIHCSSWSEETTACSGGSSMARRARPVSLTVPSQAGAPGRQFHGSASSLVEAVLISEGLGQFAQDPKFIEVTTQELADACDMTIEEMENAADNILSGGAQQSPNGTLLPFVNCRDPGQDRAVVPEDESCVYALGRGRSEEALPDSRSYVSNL
T1 sequence (P54290 25-945 partner limits assumed, other chains not shown): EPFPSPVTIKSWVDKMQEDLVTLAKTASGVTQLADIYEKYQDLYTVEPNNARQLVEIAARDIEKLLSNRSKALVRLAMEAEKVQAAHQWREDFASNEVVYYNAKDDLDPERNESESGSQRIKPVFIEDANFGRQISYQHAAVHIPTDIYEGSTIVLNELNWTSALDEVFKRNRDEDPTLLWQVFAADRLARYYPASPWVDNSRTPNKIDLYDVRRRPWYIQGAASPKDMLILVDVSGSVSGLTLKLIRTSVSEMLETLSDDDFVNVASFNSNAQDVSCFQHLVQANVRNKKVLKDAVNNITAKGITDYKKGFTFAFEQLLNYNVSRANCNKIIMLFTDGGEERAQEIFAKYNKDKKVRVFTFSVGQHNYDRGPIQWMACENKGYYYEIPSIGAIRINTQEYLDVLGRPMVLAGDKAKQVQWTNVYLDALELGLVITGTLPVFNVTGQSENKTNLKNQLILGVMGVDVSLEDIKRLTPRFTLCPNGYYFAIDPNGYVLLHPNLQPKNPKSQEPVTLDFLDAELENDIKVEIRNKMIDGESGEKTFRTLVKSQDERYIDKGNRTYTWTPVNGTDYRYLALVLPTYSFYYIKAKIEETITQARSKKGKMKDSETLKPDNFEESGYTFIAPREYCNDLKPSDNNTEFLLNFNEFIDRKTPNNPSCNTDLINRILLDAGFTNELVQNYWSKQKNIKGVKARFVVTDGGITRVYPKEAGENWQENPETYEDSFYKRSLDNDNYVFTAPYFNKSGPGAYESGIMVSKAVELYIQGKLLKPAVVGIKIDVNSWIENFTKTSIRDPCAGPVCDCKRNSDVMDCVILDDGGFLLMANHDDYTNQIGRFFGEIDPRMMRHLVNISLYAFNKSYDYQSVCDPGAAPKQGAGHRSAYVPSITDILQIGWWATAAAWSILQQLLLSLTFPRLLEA
T1 sequence (P54290 946-1091 partner limits assumed, other chains not shown): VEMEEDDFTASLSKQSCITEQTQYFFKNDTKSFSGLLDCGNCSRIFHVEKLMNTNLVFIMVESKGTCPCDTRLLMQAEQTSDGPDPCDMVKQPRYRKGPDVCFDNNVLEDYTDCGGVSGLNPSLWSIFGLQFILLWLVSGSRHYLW
Nature of the experiment: [^3 H]Nitrendipine binding assay (enhancement of binding to rat heart membranes). More on the design: species or system rat (male Sprague-Dawley). As to conditions: ligand 0.1 nM, mean ± SEM; for activity at 1 µM: 10^-6 M; for activity at 0.1 µM: 10^-7 M. The protocol: Membranes were prepared from the hearts of male Sprague-Dawley rats and [^3 H]nitrendipine binding was conducted as described in detail by H. R. Lee, et al., J. Pharmacol Exp. Ther. 233:611-616, (1985), as modified by F. J. Ehlert, et al., Biochem. Biophys. Rec. Common. 104:937-943, (1982). The ability of compounds tested at 10^-6 and 10^-7 M to enhance [^3 H]nitredepine binding was taken as indicative of diltiazem-like calcium antagonistic properties.
Values are the mean ± SEM of single experiments run in triplicate at
the concentrations of drugs indicated. Ligand concentration was 0.1 nM an
control specific binding was 49.6 ± 1.7 fmol/mg protein.

In experiment [3] the test system is calcium currents. The note with it: potency compared with diltiazem; cited from earlier work.
For experiment [4], the system named is adenylate cyclase. As to conditions: a number of tissues; cited from earlier work.
Experiment [5] has as its target [^3 H]d-cis-diltiazem binding to rat whole brain membranes (calcium ion-channel protein). Nature of the experiment: [^3 H]d-cis-Diltiazem binding assay (displacement from rat whole brain membranes). Set-up: species or system rat (male Sprague-Dawley). The note with it: for IC50: ligand […]. The procedure:
The whole brain from male Sprague-Dawley rats (200-300 g) was dissected and homogenized in cold 50 mM Tris-HCl buffer (pH 7.4) for 2 x 30 second periods by Polytron (Brinkmann, setting No. 5). The homogenate was washed 2 times (48,000 ×g for 10 minutes, 4° C.) with intermittent resuspension of the pellet in fresh buffer. The final pellet was resuspended to an original tissue concentration of 100 mg/ml in Tris-HCl buffer. […] The reaction was terminated by rapid filtration under a vacuum through 0.05% polyethylenimine-pretreated Whatman GF/B glass fiber filters. Filters were immediately washed 2 times with 4 ml of cold Tris-HCl buffer. Pretreatment of the filters with 0.05% polyethylenimine served to eliminate [^3 H]d-cis-diltiazem binding to the filter. The filters were dried and the radioactivity in the filters was extracted overnight in scintillation fluid.

Experiment [6] deals with T2, K^+ -depolarized guinea pig ileum or taenia (Cavia porcellus).
T2 construct: pieces of ileum, 2 cm in length, from male guinea pigs (200-400 g) were set up in isolated organ baths; from tissue; host or cells: strips of taenia from the caecum or pieces of ileum of male guinea pigs
Nature of the experiment: Antagonism of Ca^++ -induced contractions of K^+ -depolarized guinea pig taenia or ileum. As to conditions: FIG. 6; 40 mM K^+ -depolarized guinea pig ileum. The class given is cell-based. The protocol: Strips of taenia from the caecum or pieces of ileum, 2 cm in length, from male guinea pigs (200-400 g) were set up in isolated organ baths in Ca^++ -free K^+ Tyrode's solution (mM NaCl 137, KCl 40, NaH2 PO4 0.4, NaHCO3 11.9, glucose 5.5) and gassed with 95% O2, 5% CO2 at 37° C. Contractions were measured with isotonic transducers with a 1 g load. Cumulative dose-response curves were obtained. Tissues were then washed and incubated with the compounds for 20-25 minutes and then Ca^++ concentration response curves re-established. […] Dose ratios were determined graphically at ED50 values from the Ca^++ dose-response curve and Schild plots were constructed to determine pA2 value using inverse regression line analysis. Alternatively, when only one concentration of an antagonist was used, pA2 values were calculated according to the method of J. M. Van Rossum, Arch. Int. Pharmacodyn Ther. 143: 299-330 (1963).

Experiment [7] deals with isolated guinea pig hearts. As to conditions: cited from earlier work.

In the case of `c1ccc([C@H]2CCC[C@H]2N=C2CCCCCCCCCCCN2)cc1` (relative stereo) [Test Compound 3, 2-[(cis-2-phenylcyclopentyl)imino]azacyclotridecane], the “effect on [3H]nitrendipine binding” value in experiment [1] is “enhanced [3H]nitrendipine binding in rat cerebral cortical and cardiac homogenates in a similar manner to diltiazem”. Further, in experiment [2] (25° C.), the activity at 1 µM turned out to be 112 ± 2% and the activity at 0.1 µM came to 102 ± 1%. In experiment [2] (37° C.), the activity at 1 µM was found to be 165 ± 13% and the activity at 0.1 µM was 141 ± 8%. Also, the “effect on calcium currents” value in experiment [3] was “selectively reduced calcium currents with a potency similar to diltiazem”. In experiment [4], the “inhibition of stimulated adenylate cyclase activity” value is “inhibit stimulated adenylate cyclase activity in a number of tissues”. Also, in experiment [5] (25° C.), the IC50 was 280 ± 30 nM. For the same compound, the IC50 in experiment [5] (37° C.) turned out to be 403 ± 77 nM. In experiment [5] (Table 1, displacement of 3H diltiazem, rat brain membranes, 25° C., n = 3, Cheng & Prusoff), the pKi came to 6.41. Besides, in experiment [6], the “mean pA2 value (95% confidence interval), Schild plot” value is listed as 6.66 (6.31-7.44) and the “mean slope (±S.D.) of Schild plot” value is given as 0.89 (0.16). Also, the “reversal of inotropic and chronotropic effects by calcium” value in experiment [7] (administration of calcium) was “reversed by the administration of calcium”. The “inotropic and chronotropic effects” value in experiment [7] was “negative inotropic and chronotropic effects”.

For orientation: IC50 means the midpoint of a concentration-inhibition curve. For orientation: pKi means the Ki on a negative log10 scale, so that one unit is a factor of ten.
